{
  "source": "patent US10294259B2",
  "about": "“Phenyl c-glucoside derivative containing deoxyglucose structure, preparation method and use thereof” (Tianjin Institute of Pharmaceutical Research, priority 2012, dated 2019);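 as to Behaviors after administration with the compound to be tested: test animals were mice weighing 18-20 g, with both sexes in equal numbers in each group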",
  "data": [
    {"tested_on": "SD rats (type 2 diabetes model)", "test": "Urine glucose excretion in streptozotocin/high-fat high-sucrose diet type 2 diabetes model rats, glucose-oxidase method", "format": "in vivo, rat", "conditions": "6 mg/kg intragastric, glucose 2 g/kg at 0.5 h, urine collected 0-12 h", "method": "(§1) The health SD rats are injected intraperitoneally with multiple low doses of streptozotocin for modeling (type 2 diabetes model) after feeding with high-fat and high-sucrose diet, and the content of blood glucose is measured before and after modeling. After the modeling successful, the rats for modeling are randomly divided (8 rats/group) into one blank group (administering the same volume of 0.5% CMC sodium solution) and several groups for compounds to be tested (6 mg/kg) according to the content of 24-hour urine glucose and the body weight. Rats in each group are fasted for 16 hours before experiment. The experimental rats are administered intragastrically with glucose (2 g/kg) at 0.5 h after intragastrical administration with compounds to be tested. The urine is collected at the time-period of 0-12 h after administration, and the urine glucose values are measured at each time-period by glucose-oxidase method. […]", "values": [
      {"smiles": "CCOc1ccc(Cc2cc(C3OC(C)C(O)C(O)C3O)ccc2C)cc1", "note": "(centres unmarked) [drawing 219]", "Urine glucose excretion": "700 mg/200 g body weight of the rat"},
      {"smiles": "COc1ccc(Oc2cc(C3OC(C)C(O)C(O)C3O)ccc2Cl)cc1", "note": "(centres unmarked)", "Urine glucose excretion": "457 mg/200 g body weight of the rat"},
      {"smiles": "CCOc1ccc(Cc2cc(C3CCC(O)C(CO)S3)c(OC)cc2C)cc1", "note": "(centres unmarked) [drawing 266]", "Urine glucose excretion": "730 mg/200 g body weight of the rat"},
      {"smiles": "CCc1ccc(Cc2c(Cl)ccc3c2COC32OC(CO)C(O)C(O)C2O)cc1", "note": "(centres unmarked) [drawing 258]", "Urine glucose excretion": "755 mg/200 g body weight of the rat"},
      {"smiles": "CCOc1ccc(Cc2cc(C3OC(CO)CC(O)C3O)ccc2Cl)cc1", "note": "(centres unmarked) [drawing 229]", "Urine glucose excretion": "880 mg/200 g body weight of the rat"},
      {"smiles": "CCc1ccc(Cc2cc(C3OC(CO)C(O)CC3O)ccc2C)cc1", "note": "(centres unmarked)", "Urine glucose excretion": "230 mg/200 g body weight of the rat"}
    ]},
    {"tested_on": "SD rats (type 2 diabetes model)", "test": "Urine glucose excretion in streptozotocin/high-fat high-sucrose diet type 2 diabetes model rats, glucose-oxidase method", "format": "in vivo, rat", "conditions": "compared with analogues or non-deoxy compounds", "method": "as §1", "values": [
      {"smiles": "CCOc1ccc(Cc2cc([C@@H]3O[C@H](CO)[C@@H](O)C[C@H]3O)ccc2Cl)cc1", "note": "[I-D1-3, (1S)-1-[4-chloro-3-(4-ethoxybenzyl)phenyl]-1,3-dideoxy-D-glucose]", "urine glucose excretion effect (comparison in words)": "stronger urine glucose excretion effect"},
      {"smiles": "CCOc1ccc(Cc2cc([C@@H]3O[C@H](CO)C[C@H](O)[C@H]3O)ccc2Cl)cc1", "note": "[I-D1-4, (1S)-1-[4-chloro-3-(4-ethoxybenzyl)phenyl]-1,4-dideoxy-D-glucose]", "urine glucose excretion effect (comparison in words)": "stronger urine glucose excretion effect"},
      {"smiles": "CCOc1ccc(Cc2cc([C@@H]3C[C@@H](O)[C@H](O)[C@@H](CO)O3)ccc2Cl)cc1", "note": "[I-D1-2, (1S)-1-[4-chloro-3-(4-ethoxybenzyl)phenyl]-1,2-dideoxy-D-glucose]", "urine glucose excretion effect (comparison in words)": "stronger urine glucose excretion effect"}
    ]},
    {"tested_on": "Mice", "test": "not given", "conditions": "both, mouse, in vivo, 750 mg/kg, 1 week", "units": {"Behaviors after administration with the compound to be tested": "dead"}, "values": [
      {"smiles": "OCC1OC(c2ccc(F)c(Cc3cc4ccccc4s3)c2)C(O)C(O)C1O", "note": "(centres unmarked)", "Behaviors after administration with the compound to be tested": 7},
      {"smiles": "CCOc1ccc(Cc2cc(C3SC(CO)C(O)C(O)C3O)c(OC)cc2C)cc1", "note": "(centres unmarked)", "Behaviors after administration with the compound to be tested": 10}
    ]},
    {"tested_on": "Mice", "test": "not given", "conditions": "single dose 750 mg/kg intragastric, 10 mice/group, observed one week", "units": {"Behaviors after administration with the compound to be tested": "dead"}, "values": [
      {"smiles": "CCOc1ccc(Cc2cc(C3SC(CO)C(O)CC3O)c(OC)cc2C)cc1", "note": "(centres unmarked) [drawing 303]", "Behaviors after administration with the compound to be tested": 0},
      {"smiles": "CCOc1ccc(Cc2cc(C3OC(C)C(O)C(O)C3O)ccc2Cl)cc1", "note": "(centres unmarked) [drawing 282]", "Behaviors after administration with the compound to be tested": 1},
      {"smiles": "CCOc1ccc(Cc2cc([C@@]34OC[C@@](CO)(C[C@H](O)[C@H]3O)O4)ccc2Cl)cc1", "Behaviors after administration with the compound to be tested": 4},
      {"smiles": "CCOc1ccc(Cc2cc(C3OC(CO)C(O)C(O)C3O)ccc2Cl)cc1", "note": "(centres unmarked)", "Behaviors after administration with the compound to be tested": 8},
      {"smiles": "CCOc1ccc(Cc2cc(C3SC(CO)C(O)CC3O)c(OC)cc2C)cc1", "note": "(centres unmarked) [drawing 304]", "Behaviors after administration with the compound to be tested": 3},
      {"smiles": "OCC1CC(O)C(O)C(c2ccc(Cl)c(Cc3ccc(O[C@H]4CCOC4)cc3)c2)O1", "note": "(some centres unmarked)", "Behaviors after administration with the compound to be tested": 2},
      {"smiles": "OCC1OC(c2ccc(Cl)c(Cc3ccc(O[C@H]4CCOC4)cc3)c2)C(O)CC1O", "note": "(some centres unmarked)", "Behaviors after administration with the compound to be tested": 0},
      {"smiles": "CCOc1ccc(Cc2cc(C3OC(CO)C(O)CC3O)ccc2Cl)cc1", "note": "(centres unmarked)", "Behaviors after administration with the compound to be tested": 3},
      {"smiles": "OCC1CC(O)C(O)C(c2ccc(F)c(Cc3cc4ccccc4s3)c2)O1", "note": "(centres unmarked)", "Behaviors after administration with the compound to be tested": 1},
      {"smiles": "CCOc1ccc(Cc2cc(C3OC(C)CC(O)C3O)ccc2Cl)cc1", "note": "(centres unmarked)", "Behaviors after administration with the compound to be tested": 1},
      {"smiles": "Cc1ccc(C2OC(C)C(O)C(O)C2O)cc1Cc1ccc(-c2ccc(F)cc2)s1", "note": "(centres unmarked)", "Behaviors after administration with the compound to be tested": 4},
      {"smiles": "Cc1ccc(C2CC(O)C(O)C(CO)O2)cc1Cc1ccc(-c2ccc(F)cc2)s1", "note": "(centres unmarked)", "Behaviors after administration with the compound to be tested": 5},
      {"smiles": "CCOc1ccc(Cc2cc(C3CCC(O)C(CO)S3)c(OC)cc2C)cc1", "note": "(centres unmarked) [drawing 310]", "Behaviors after administration with the compound to be tested": 0},
      {"smiles": "Cc1ccc(C2OC(CO)C(O)CC2O)cc1Cc1ccc(-c2ccc(F)cc2)s1", "note": "(centres unmarked)", "Behaviors after administration with the compound to be tested": 3},
      {"smiles": "OCC1CCC(O)C(c2ccc(Cl)c(Cc3ccc(O[C@H]4CCOC4)cc3)c2)O1", "note": "(some centres unmarked)", "Behaviors after administration with the compound to be tested": 2},
      {"smiles": "OCC1OC(c2ccc(Cl)c(Cc3ccc(O[C@H]4CCOC4)cc3)c2)C(O)C(O)C1O", "note": "(some centres unmarked)", "Behaviors after administration with the compound to be tested": 7},
      {"smiles": "CCOc1ccc(Cc2cc([C@]34OC[C@](CO)(O3)[C@@H](O)C[C@H]4O)ccc2Cl)cc1", "Behaviors after administration with the compound to be tested": 3},
      {"smiles": "CCCOc1ccc(Cc2cc(C3OC(C)C(O)C(O)C3O)ccc2Cl)cc1", "note": "(centres unmarked)", "Behaviors after administration with the compound to be tested": 6},
      {"smiles": "Cc1ccc(C2OC(CO)CC(O)C2O)cc1Cc1ccc(-c2ccc(F)cc2)s1", "note": "(centres unmarked)", "Behaviors after administration with the compound to be tested": 3},
      {"smiles": "CCc1ccc(Cc2c(Cl)ccc3c2COC32OC(C)C(O)C(O)C2O)cc1", "note": "(centres unmarked)", "Behaviors after administration with the compound to be tested": 3},
      {"smiles": "CCc1ccc(Cc2c(Cl)ccc3c2COC32CC(O)C(O)C(CO)O2)cc1", "note": "(centres unmarked)", "Behaviors after administration with the compound to be tested": 2},
      {"smiles": "CCOc1ccc(Cc2cc(C3OC(CO)CC(O)C3O)ccc2Cl)cc1", "note": "(centres unmarked) [drawing 272]", "Behaviors after administration with the compound to be tested": 2},
      {"smiles": "OCC1OC(c2ccc(F)c(Cc3cc4ccccc4s3)c2)C(O)CC1O", "note": "(centres unmarked)", "Behaviors after administration with the compound to be tested": 0},
      {"smiles": "Cc1ccc(C2OC(CO)C(O)C(O)C2O)cc1Cc1ccc(-c2ccc(F)cc2)s1", "note": "(centres unmarked)", "Behaviors after administration with the compound to be tested": 9},
      {"smiles": "CCOc1ccc(Cc2cc([C@]34OC[C@](C)(O3)[C@@H](O)[C@H](O)[C@H]4O)ccc2Cl)cc1", "Behaviors after administration with the compound to be tested": 3},
      {"smiles": "CCc1ccc(Cc2c(Cl)ccc3c2COC32OC(CO)C(O)CC2O)cc1", "note": "(centres unmarked)", "Behaviors after administration with the compound to be tested": 5},
      {"smiles": "CC1OC(c2ccc(Cl)c(Cc3ccc(O[C@H]4CCOC4)cc3)c2)C(O)C(O)C1O", "note": "(some centres unmarked)", "Behaviors after administration with the compound to be tested": 1},
      {"smiles": "CCOc1ccc(Cc2cc([C@]34C[C@@H](O)[C@H](O)[C@](CO)(CO3)O4)ccc2Cl)cc1", "Behaviors after administration with the compound to be tested": 2},
      {"smiles": "CCOc1ccc(Cc2cc(C3SC(CO)CC(O)C3O)c(OC)cc2C)cc1", "note": "(centres unmarked)", "Behaviors after administration with the compound to be tested": 1},
      {"smiles": "OCC1OC(c2ccc(F)c(Cc3cc4ccccc4s3)c2)CC(O)C1O", "note": "(centres unmarked)", "Behaviors after administration with the compound to be tested": 3},
      {"smiles": "CCc1ccc(Cc2c(Cl)ccc3c2COC32OC(CO)C(O)C(O)C2O)cc1", "note": "(centres unmarked) [drawing 269]", "Behaviors after administration with the compound to be tested": 7},
      {"smiles": "CC1OC(c2ccc(F)c(Cc3cc4ccccc4s3)c2)C(O)C(O)C1O", "note": "(centres unmarked)", "Behaviors after administration with the compound to be tested": 2},
      {"smiles": "CCc1ccc(Cc2c(Cl)ccc3c2COC32CC(O)CC(CO)O2)cc1", "note": "(centres unmarked)", "Behaviors after administration with the compound to be tested": 1},
      {"smiles": "CCOc1ccc(Cc2cc([C@]34OC[C@](CO)(O3)[C@@H](O)[C@H](O)[C@H]4O)ccc2Cl)cc1", "Behaviors after administration with the compound to be tested": 9},
      {"smiles": "OCC1OC(c2ccc(Cl)c(Cc3ccc(O[C@H]4CCOC4)cc3)c2)CC(O)C1O", "note": "(some centres unmarked)", "Behaviors after administration with the compound to be tested": 2},
      {"smiles": "Cc1ccc(C2OC(C)C(O)CC2O)cc1Cc1ccc(-c2ccc(F)cc2)s1", "note": "(centres unmarked)", "Behaviors after administration with the compound to be tested": 0},
      {"smiles": "CC1OC(c2ccc(F)c(Cc3cc4ccccc4s3)c2)CC(O)C1O", "note": "(centres unmarked)", "Behaviors after administration with the compound to be tested": 1},
      {"smiles": "CCc1ccc(Cc2c(Cl)ccc3c2COC32OC(CO)CC(O)C2O)cc1", "note": "(centres unmarked)", "Behaviors after administration with the compound to be tested": 5},
      {"smiles": "CCOc1ccc(Cc2cc(C3CC(O)C(O)C(CO)O3)ccc2Cl)cc1", "note": "(centres unmarked)", "Behaviors after administration with the compound to be tested": 2},
      {"smiles": "COc1ccc(Cc2cc(C3OC(C)C(O)C(O)C3O)ccc2Cl)cc1", "note": "(centres unmarked) [drawing 281]", "Behaviors after administration with the compound to be tested": 7},
      {"smiles": "CCOc1ccc(Cc2cc(C3SC(C)C(O)C(O)C3O)c(OC)cc2C)cc1", "note": "(centres unmarked)", "Behaviors after administration with the compound to be tested": 4},
      {"smiles": "CCOc1ccc(Cc2cc(C3CC(O)C(O)C(CO)S3)c(OC)cc2C)cc1", "note": "(centres unmarked)", "Behaviors after administration with the compound to be tested": 3}
    ]}
  ]
}
